Measured values: patent US4965280A, “Antifungal carbinols” (E. I. Du Pont de Nemours and Company, priority 1989, dated 1990)
≈ marks a conversion by molar mass, not a printed value. Like-named read-outs stand apart in the source and are kept apart here.

Experiments:
Venturia inaequalis = assay: Example A apple scab; assay type: in vivo; details: read-out: disease control rating, Ex. A
Procedure: (§1) The test compounds were dissolved in acetone in an amount equal to 6% of the final volume and then suspended at a concentration of 100 or 20 ppm in purified water containing 250 ppm of the surfactant TREM 014 (polyhydric alcohol esters). This suspension was sprayed to the point of run-off on apple seedings.

[1] = tested on: Candida albicans ATCC 11651; assay: In vitro antifungal MIC, microtiter broth dilution; details: Candida albicans, ATCC11651, 24 h, read-out: MIC values, C. albicans, 30°, 24 hours
Procedure: In vitro activity (Table 5) is expressed in terms of the minimal inhibitory concentration (MIC) of the test compound which inhibits the growth of yeasts and fungi.
The target organisms, Candida albicans ATCC 11651 and Aspergillus fumigatus ATCC 28214 are standardized, [V. Bezjak, J. Clinical Micro., 21 509-512 (1984)], to a concentration of 10^7 organisms/ml and maintained at -70° until use. Test compounds are solubilized in dimethyl sulfoxide (DMSO) and diluted in Eagle's Minimum Essential Medium (EMEM) broth to achieve a final concentration of 200 μg/ml. Stock solutions of standard antifungal agents are stored at -70° and diluted in EMEM as required.
The in vitro assay utilizes a microtiter broth dilution technique [L. Polonelli and G. Morace, Mycopathologia, 86, 21-28 (1984)] and C. […] The appropriate wells are inoculated with the required organism (C. albicans at 1×10^4 organisms/ml and A. fumigatus at 5×10^5 organisms/ml) and the assay incubated at 30° for 24 hours.

[2] = tested on: Erysiphe graminis f. sp. tritici; assay: Example D wheat powdery mildew; assay type: in vivo; details: Blumeria graminis, 144 h, read-out: disease control rating, Ex. D
Procedure: as §1, with “wheat seedlings.” for “apple seedings.”

[3] = tested on: Cercosporidium personatum; assay: Example B Peanut Late Leafspot; assay type: in vivo; details: Nothopassalora personata, read-out: disease control rating, Ex. B
Procedure: as §1, with “peanut seedlings.” for “apple seedings.”

Pyricularia oryzae = assay: whole plant or invertebrate; assay type: in vivo; details: Pyricularia oryzae, 120 h; for pest or weed control at 20 ppm: read-out: disease control rating, Ex. E, 20 PPM; for pest or weed control at 100 ppm: read-out: disease control rating, Ex. E, 100 PPM
[4] = tested on: Aspergillus fumigatus ATCC 28214; assay: In vitro antifungal MIC, microtiter broth dilution; details: Aspergillus fumigatus, ATCC28214, 24 h, read-out: MIC values, A. fumigatus, 30°, 24 hours
Puccinia recondita = assay: Example G wheat leaf rust; assay type: in vivo; details: read-out: disease control rating, Ex. G
Plasmorpara viticola = assay: Example I grape downy mildew; assay type: in vivo; details: read-out: disease control rating, Ex. I
Procedure: as §1, with “grape seedlings.” for “apple seedings.”

Botrytis cinerea = assay: Example C bean grey mold; assay type: in vivo; details: Botrytis cinerea, 24 h, read-out: disease control rating, Ex. C
Procedure: as §1, with “broad bean seedlings.” for “apple seedings.”

[5] = tested on: Candida albicans ATCC 11651; assay: In vivo systemic Candida infection in mice, primary assay; set-up: species or system Candida albicans; CF-1 female mice; details: Candida albicans, 150 mg/kg per day, read-out: % Survival
Source text: The […] activity of test compounds is based on the percent (%) survival of infected animals receiving test or standard agent compared to that in an infected untreated group (Table 6). The in vivo assays are chronic systemic infections lethal to mice within 7 days post infection, [J. Barnes, et al. Lab Investigation, 49 460-467 (1963), and T. Rogers and E. Balish, Infection and Immunity, 14 33-38 (1976)].
Candida albicans ATCC 11651, from a frozen stock culture (10^9 organisms/ml) maintained at -70°, is diluted in saline to 1×10^7 organisms/ml and 0.2 ml inoculated intravenously (caudal vein) into 20.0 gm CF-1 female mice (Charles River).
Test compounds are routinely solubilized in 0.25% (w/v) methylcellulose (Methocel®) but for those compounds difficult to solubilize 10% (w/v) Emulophor® (EL620 GAF Corp.) is used. The standard antifungal agents, amphotericin B (Fungizone®) in water and ketoconazole (Nizoral®) in Methocel®, are administered at 1.0 mg/kg/day and 150 mg/kg/day, respectively.
In a primary assay, mice (10 per group) are infected with C. albicans, and receive test compounds at 50 or 150 mg/kg/day via the subcutaneous route. Animals are dosed with the test compound at 1 and 6 hour post-infection and then once daily for the next three days. Survival of mice in each group is recorded for 21 days.
Compounds which protect ≥70% of the infected animals for 14 days at a dose 150 mg/kg/day or less are viewed as active.

Rhizoctonia solani = assay: Example F rice sheath blight; assay type: in vivo; details: Rhizoctonia solani, 144 h, read-out: disease control rating, Ex. F
Procedure: as §1, with “rice seedlings.” for “apple seedings.”

Phytophthora infestans = assay: whole plant or invertebrate; assay type: in vivo; details: Phytophthora infestans, in Solanum lycopersicum, read-out: disease control rating, Ex. H, 100 PPM
Pythium aphanadermatum = assay: Example J cucumber damping off; assay type: in vivo; set-up: key to phytotoxicity entry, Ex. J: P: disease control was not measured due to phytoxicity; details: 5 kg/ha
Procedure: […] Seeds and soil were then inoculated with a mixture of sand, cereal and mycelium of the fungus Pythium aphanadermatum, causal agent of cucumber damping off, and incubated in a growth chamber at 30° C. for 14 days. Disease ratings were then made.

| SMILES | pest or weed control at 20 ppm (Venturia inaequalis) [%] | MIC [1] [µg/mL] | pest or weed control at 20 ppm [2] [%] | pest or weed control at 20 ppm [3] [%] | pest or weed control at 20 ppm (Pyricularia oryzae) [%] | pest or weed control at 100 ppm (Pyricularia oryzae) [%] | MIC [4] [µg/mL] | pest or weed control at 20 ppm (Puccinia recondita) [%] | pest or weed control at 100 ppm (Plasmorpara viticola) [%] | pest or weed control at 20 ppm (Botrytis cinerea) [%] | pest or weed control at 100 ppm (Botrytis cinerea) [%] | responders at 150 mg/kg ([5]; ATCC11651, 168 h, day 7) [%] | responders at 150 mg/kg ([5]; ATCC11651, 336 h, day 14) [%] | responders at 150 mg/kg ([5]; ATCC11651, 504 h, day 21) [%] | pest or weed control at 20 ppm (Rhizoctonia solani) [%] | pest or weed control at 100 ppm (Rhizoctonia solani) [%] | pest or weed control at 100 ppm (Phytophthora infestans) [%] | also measured |
| --- | --- | --- | --- | --- | --- | --- | --- | --- | --- | --- | --- | --- | --- | --- | --- | --- | --- | --- |
| C=C(c1ccc(F)cc1)C(Cn1cncn1)(OC(C)=O)c1ccc(F)cc1 (centres unmarked) [Example 361] | 43 | 0.8 (≈ 2.17 µM) | 33 | 26 | 1 | 1 | 25 (≈ 67.7 µM) | 100 | 9 | 29 | 46 | 100 | 100 | 90 | 0 | 0 | 27 |  |
| C=C(CN1CC(C)OC(C)C1)C(O)(Cn1cncn1)c1ccc(F)cc1 (centres unmarked) [Example 477] |  | > 100 |  |  |  | 48 |  |  | 0 |  | 76 |  |  |  |  | 48 | 0 | pest or weed control at 100 ppm (Venturia inaequalis; 100 PPM): 95%; phytotoxicity entry, Ex. J (Pythium aphanadermatum): P; pest or weed control at 100 ppm ([2]; 100 PPM): 100%; pest or weed control at 100 ppm ([3]; 100 PPM): 100%; pest or weed control at 100 ppm (Puccinia recondita; 100 PPM): 100% |
| C=C(c1ccccc1)C(O)(Cn1cncn1)c1ccccc1Cl (centres unmarked) [Example 596] | 91 | 0.05 (≈ 0.153 µM) | 94 | 95 | 0 | 0 | 0.4 (≈ 1.23 µM) | 100 | 25 | 35 | 89 | 70 | 60 | 40 | 0 | 0 | 0 |  |
| C=C(c1ccccc1Cl)C(O)(Cn1cncn1)c1ccc(Cl)c(Cl)c1 (centres unmarked) [Example 627] | 31 | 0.03 (≈ 0.076 µM) | 81 | 70 | 0 | 0 | 25 (≈ 63.3 µM) | 99 | 61 | 19 | 38 | 0 | 0 | 0 | 0 | 14 | 0 |  |
